# Laboratory results as given in ChEMBL document CHEMBL1201862, “PubChem BioAssay data set” (2004).
# Activity calls are given as the source filed them.
# Tests used:
# [1] = HPDE-C7 pancreatic duct cell viability loss – fluorescence, HTS (AID 430); type: functional, cell-based; conditions: Homo sapiens
# [2] = viability loss of HPDE-C7K cells – cell-based, fluorescence, HTS, primary screen (AID 431); type: functional; conditions: Homo sapiens
# [3] = target: T1, Heat shock factor protein 1 (Mus musculus, UniProt P38532); test: enhancement of HSF1-driven luciferase signal – cell-based, NIH3T3, luminescence, dose retest, confirmation (AID 435004); type: functional;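 also: stress induced by proteasome inhibitor MG132 added 30 min after compound; luciferase reporter driven by HSF1 response element in NIH3T3 cells; actives raise luminescence as potentiators of the MG132 stress response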
# T1 sequence (P38532 whole entry): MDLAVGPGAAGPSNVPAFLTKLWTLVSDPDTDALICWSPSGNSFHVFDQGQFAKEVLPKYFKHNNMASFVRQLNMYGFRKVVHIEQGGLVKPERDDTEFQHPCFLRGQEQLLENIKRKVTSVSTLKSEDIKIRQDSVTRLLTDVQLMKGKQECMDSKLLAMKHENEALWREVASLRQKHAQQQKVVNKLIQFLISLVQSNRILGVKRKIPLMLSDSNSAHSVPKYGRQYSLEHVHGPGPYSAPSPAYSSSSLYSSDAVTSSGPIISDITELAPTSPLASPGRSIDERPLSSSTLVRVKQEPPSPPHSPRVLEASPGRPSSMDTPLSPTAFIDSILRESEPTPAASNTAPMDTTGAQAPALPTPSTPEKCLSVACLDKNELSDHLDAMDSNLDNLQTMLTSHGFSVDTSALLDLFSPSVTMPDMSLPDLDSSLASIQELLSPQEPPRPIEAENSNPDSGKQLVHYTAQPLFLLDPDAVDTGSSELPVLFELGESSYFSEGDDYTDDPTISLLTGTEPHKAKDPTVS
# [4] = target: Prothrombin (Homo sapiens, UniProt P00734); test: Thrombin 1536 HTS Dose Response Confirmation. [Related pubchem assays: 1046 (Thrombin 1536 HTS; hits were confirmed in this assay)]; type: functional
# [5] = viability of PTEN-deleted HCT116 cells – cell-based, HCT116 PTEN knockout, dose response (AID 1047); type: functional;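 also: HCT116 colon tumor cells with PTEN knocked out; cells exposed to compound for 60 hours before readout; potency for loss of cell viability measured by luminescence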
# [6] = viability of HCT116 lacking mutant beta-catenin – cell-based, human colon tumor, dose response (AID 1045); type: functional;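 also: HCT116 colon tumor cells with beta catenin knocked out; cells exposed to compound for 60 hours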
# [7] = microbe, parasite or virus in culture; type: functional; conditions: Mycobacterium tuberculosis
# [8] = non-specific 3'UTR reporter inhibition in Clone20-Shn3RL – cell-based, Renilla luciferase, cherry-picked, counter-screen for Shn3 inhibitor project, dose response (AID 624133); type: functional
# [9] = reduction of Shn3 3'UTR-driven luciferase in osteoblasts – cell-based, Clone20 osteoblasts, firefly luciferase, cherry-picked, dose response (AID 624132); type: functional;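 also: firefly luciferase luminescence from reporter carrying the Shn3 3'UTR in osteoblasts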
# [10] = loss of viability in HepG2 cells – cell-based, CellTiter-Glo, cherry-picked, cytotoxicity control for Shn3 inhibitor project, dose response (AID 624134); type: functional
# [11] = target: T2, Leucine aminopeptidase (Plasmodium falciparum 3D7, UniProt Q8IL11); test: P. falciparum M17LAP inhibitors, primary screen, biochemical, fluorogenic H-Leu-NHMec substrate, 1536-well (AID 1619); type: functional
# T2 sequence (Q8IL11 whole entry): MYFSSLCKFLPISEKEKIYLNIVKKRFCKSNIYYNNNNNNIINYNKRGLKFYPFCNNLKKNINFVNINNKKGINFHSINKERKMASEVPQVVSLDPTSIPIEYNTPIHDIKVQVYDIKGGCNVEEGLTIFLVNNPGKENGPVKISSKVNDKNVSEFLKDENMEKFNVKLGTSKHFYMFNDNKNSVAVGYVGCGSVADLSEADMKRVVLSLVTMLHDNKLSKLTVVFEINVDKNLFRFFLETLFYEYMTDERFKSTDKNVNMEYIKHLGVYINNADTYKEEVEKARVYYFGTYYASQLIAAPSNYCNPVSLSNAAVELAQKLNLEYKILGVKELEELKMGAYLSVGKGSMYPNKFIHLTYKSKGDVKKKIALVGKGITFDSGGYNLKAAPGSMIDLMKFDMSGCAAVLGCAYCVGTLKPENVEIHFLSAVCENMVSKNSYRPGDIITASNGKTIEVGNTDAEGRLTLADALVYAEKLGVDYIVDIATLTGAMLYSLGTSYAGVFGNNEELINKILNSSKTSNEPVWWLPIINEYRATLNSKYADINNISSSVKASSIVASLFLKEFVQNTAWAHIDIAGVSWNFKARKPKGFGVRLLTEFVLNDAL
# [12] = test system: INS1; test: INS-1E survival protection against cytokine death – cell-based, luminescence, retest, dose response (AID 449756); type: functional; conditions: Rattus norvegicus;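 also: cell death triggered by IL-1 beta plus TNF-alpha plus IFN-gamma mixture; protective hits raise ATP signal compared with cytokine alone wells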
# [13] = target: T3, Microphthalmia-associated transcription factor (Homo sapiens, UniProt O75030); test: reducers of TRPM1 reporter luminescence, concentration series – cell-based, SK-MEL-5, cherry-picked, set 3, MITF inhibitor project, dose response (AID 493073); type: functional;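 also: SK-MEL-5 melanoma cells with luciferase driven by the MITF target TRPM1 promoter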
# T3 sequence (O75030 whole entry): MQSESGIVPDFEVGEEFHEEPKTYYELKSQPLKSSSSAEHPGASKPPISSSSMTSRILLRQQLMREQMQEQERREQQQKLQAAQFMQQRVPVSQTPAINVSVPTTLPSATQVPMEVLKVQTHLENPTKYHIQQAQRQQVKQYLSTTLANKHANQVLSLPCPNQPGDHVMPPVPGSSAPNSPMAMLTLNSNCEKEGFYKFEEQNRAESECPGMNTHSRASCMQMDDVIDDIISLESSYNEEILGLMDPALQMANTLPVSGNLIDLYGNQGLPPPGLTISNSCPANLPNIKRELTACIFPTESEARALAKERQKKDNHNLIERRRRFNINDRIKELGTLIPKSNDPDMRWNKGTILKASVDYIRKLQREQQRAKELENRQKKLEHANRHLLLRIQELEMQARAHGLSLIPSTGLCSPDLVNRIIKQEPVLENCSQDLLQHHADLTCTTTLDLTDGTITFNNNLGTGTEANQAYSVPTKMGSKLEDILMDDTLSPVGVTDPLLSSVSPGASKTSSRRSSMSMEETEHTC
# [14] = target: T4, Protein RecA (Mycobacterium tuberculosis, UniProt P9WHJ3); test: Fluorescence Cell-Free Homogeneous Dose Retest to Identify Inhibitors of RecA-Intein Splicing Activity. [Related pubchem assays (depositor defined):AID2097, AID2223, AID489010, AID492950]; type: functional
# T4 sequence (P9WHJ3 whole entry): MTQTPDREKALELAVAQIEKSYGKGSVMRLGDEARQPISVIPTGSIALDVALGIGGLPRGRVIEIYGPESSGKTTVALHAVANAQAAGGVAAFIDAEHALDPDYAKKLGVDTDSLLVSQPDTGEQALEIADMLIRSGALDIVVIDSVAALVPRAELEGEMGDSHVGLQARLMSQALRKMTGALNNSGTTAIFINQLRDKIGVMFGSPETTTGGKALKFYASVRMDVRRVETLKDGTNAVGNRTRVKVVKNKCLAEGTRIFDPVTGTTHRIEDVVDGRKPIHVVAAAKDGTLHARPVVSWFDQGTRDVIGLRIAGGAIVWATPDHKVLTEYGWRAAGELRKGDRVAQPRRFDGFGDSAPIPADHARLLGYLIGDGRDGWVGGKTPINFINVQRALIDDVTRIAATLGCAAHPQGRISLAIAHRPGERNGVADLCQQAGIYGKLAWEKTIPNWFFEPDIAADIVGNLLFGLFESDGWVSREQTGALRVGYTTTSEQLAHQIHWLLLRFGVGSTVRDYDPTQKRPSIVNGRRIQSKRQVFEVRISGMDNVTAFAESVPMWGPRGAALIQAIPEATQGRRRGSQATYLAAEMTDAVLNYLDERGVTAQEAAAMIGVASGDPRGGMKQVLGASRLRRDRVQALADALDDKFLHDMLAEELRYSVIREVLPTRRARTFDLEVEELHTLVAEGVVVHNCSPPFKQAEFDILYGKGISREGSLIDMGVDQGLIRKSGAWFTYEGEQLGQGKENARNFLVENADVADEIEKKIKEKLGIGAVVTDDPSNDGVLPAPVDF
# [15] = target: T5, Replicative DNA helicase DnaB (Mycobacterium tuberculosis, UniProt P9WMR3); test: DnaB intein splicing inhibitors, dose response, biochemical, cell-free fluorescence (AID 449749); type: functional
# T5 sequence (P9WMR3 whole entry): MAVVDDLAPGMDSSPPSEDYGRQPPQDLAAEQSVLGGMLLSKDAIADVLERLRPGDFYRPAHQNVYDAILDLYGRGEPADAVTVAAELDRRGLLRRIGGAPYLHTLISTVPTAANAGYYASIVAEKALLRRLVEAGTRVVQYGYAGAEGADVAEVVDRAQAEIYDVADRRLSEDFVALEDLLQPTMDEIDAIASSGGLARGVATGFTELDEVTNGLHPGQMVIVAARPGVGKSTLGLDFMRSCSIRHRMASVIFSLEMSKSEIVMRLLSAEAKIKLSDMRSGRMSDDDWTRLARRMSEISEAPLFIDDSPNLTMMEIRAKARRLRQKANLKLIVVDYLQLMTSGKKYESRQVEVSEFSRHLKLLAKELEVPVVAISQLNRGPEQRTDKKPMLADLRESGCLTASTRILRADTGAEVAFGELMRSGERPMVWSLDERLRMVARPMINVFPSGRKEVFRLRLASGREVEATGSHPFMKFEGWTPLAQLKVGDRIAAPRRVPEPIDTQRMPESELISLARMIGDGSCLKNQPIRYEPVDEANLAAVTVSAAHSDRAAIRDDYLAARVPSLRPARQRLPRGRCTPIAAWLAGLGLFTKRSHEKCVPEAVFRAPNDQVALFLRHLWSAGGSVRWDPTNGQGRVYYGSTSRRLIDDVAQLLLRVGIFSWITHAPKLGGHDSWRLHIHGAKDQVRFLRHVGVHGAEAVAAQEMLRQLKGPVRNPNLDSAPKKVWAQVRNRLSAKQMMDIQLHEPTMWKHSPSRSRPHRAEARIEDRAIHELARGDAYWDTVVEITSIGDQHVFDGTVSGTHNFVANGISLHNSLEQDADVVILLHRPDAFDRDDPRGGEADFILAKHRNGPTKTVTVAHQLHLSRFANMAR
smiles,measurement,setting,value
Cc1cc(C)n(S(=O)(=O)/C=C/c2ccccc2)n1,EC50,[1],9.1 µM (active)
same,EC50,[2],9.65 µM (active)
same,EC50,[3],12.1 µM (active)
C=C(CCC(=O)c1ccccc1)C(=O)c1ccccc1,IC50,[4],> 50 µM (not active)
same,EC50,[5],9.9 µM (active)
same,EC50,[6],8.26 µM (active)
same,CC50,[7],17.7 µM (active)
same,EC50,[3],15 µM (active)
O=C(Nc1ccc(Cc2ccncc2)cc1)c1ccco1,IC50,[4],> 50 µM (not active)
O=C(NC1CCCCC1)C1CCN(c2nnnn2-c2ccccc2)CC1,IC50,[4],> 50 µM (not active)
Cc1cc(NS(=O)(=O)c2ccc(NC(=O)CSc3nnc(-c4ccco4)n3N)cc2)nc(C)n1,IC50,[4],> 50 µM (not active)
O=C1C=C(NCc2ccc(Cl)c(Cl)c2)CC1,EC50,[1],> 20 µM (not active)
same,EC50,[2],> 20 µM (not active)
c1ccc(-c2cc3nc(NCC4CC4)nc(NCC4CCCCC4)c3s2)cc1,AC50,[8],3.12 µM (active)
same,AC50,[9],2.67 µM (active)
same,AC50,[10],9.15 µM (active)
CCc1nnc(NS(=O)(=O)c2ccc(/N=C/c3c(C)[nH]n(-c4cccc(Cl)c4)c3=O)cc2)s1,IC50,[11],11.3 µM (active)
O=C(N/N=C/c1ccccc1[N+](=O)[O-])c1ccc2[nH]cnc2c1,IC50,[4],2.34 µM (active)
O=C(N/N=C/c1ccc([N+](=O)[O-])o1)c1ccc(O)cc1 [NIFUROXAZIDE],AC50,[12],5.18 µM (active)
same,AC50,[13],5.2 µM (active)
same,EC50,[14],> 380 µM (inactive)
same,AC50,[15],> 380 µM (inactive)
